Experimental data reported in patent US12396461B2, “Functional peptides having antimicrobial activity against phytopathogenic microorganisms” (TOYOTA JIDOSHA KABUSHIKI KAISHA, priority 2019, dated 2025).
Where two headings read alike, the source gives them in different places.

Legend:
Type in all cases: cell-based
Botrytis cinerea = system: Botrytis cinerea; parameters: key to Plate antimicrobial activity test Botrytis cinerea, level: a case where hyphae extended to the entire well and no antimicrobial activity was found is defined as “level 0,”; a case where hyphae extended to less than a half of the well and thus the peptide inhibited the growth of the hyphae is defined as “level 1,”; a case where ungerminated spores were present and the peptide partially inhibited the germination is defined as “level 2,”; a case where all spores were ungerminated and the peptide completely inhibited the germination is defined as “level 3.”; details: 25° C. for 1 day or 2 days, microscopic observation
[1] = system: Colletotrichum destructivum; parameters: key to Plate antimicrobial activity test Colletotrichum destructivum, level: a case where hyphae extended to the entire well and no antimicrobial activity was found is defined as “level 0,”; a case where hyphae extended to less than a half of the well and thus the peptide inhibited the growth of the hyphae is defined as “level 1,”; a case where ungerminated spores were present and the peptide partially inhibited the germination is defined as “level 2,”; a case where all spores were ungerminated and the peptide completely inhibited the germination is defined as “level 3.”; details: 25° C. for 1 day or 2 days, microscopic observation
[2] = system: Colletotrichum orbiculare; parameters: key to Plate antimicrobial activity test Colletotrichum orbiculare, level: a case where hyphae extended to the entire well and no antimicrobial activity was found is defined as “level 0,”; a case where hyphae extended to less than a half of the well and thus the peptide inhibited the growth of the hyphae is defined as “level 1,”; a case where ungerminated spores were present and the peptide partially inhibited the germination is defined as “level 2,”; a case where all spores were ungerminated and the peptide completely inhibited the germination is defined as “level 3.”; details: 25° C. for 1 day or 2 days, microscopic observation
Fusarium oxysporum = system: Fusarium oxysporum; parameters: key to Plate antimicrobial activity test Fusarium oxysporum, level: a case where hyphae extended to the entire well and no antimicrobial activity was found is defined as “level 0,”; a case where hyphae extended to less than a half of the well and thus the peptide inhibited the growth of the hyphae is defined as “level 1,”; a case where ungerminated spores were present and the peptide partially inhibited the germination is defined as “level 2,”; a case where all spores were ungerminated and the peptide completely inhibited the germination is defined as “level 3.”
Pyricularia oryzae = system: Pyricularia oryzae; parameters: key to Plate antimicrobial activity test Pyricularia oryzae, level: a case where hyphae extended to the entire well and no antimicrobial activity was found is defined as “level 0,”; a case where hyphae extended to less than a half of the well and thus the peptide inhibited the growth of the hyphae is defined as “level 1,”; a case where ungerminated spores were present and the peptide partially inhibited the germination is defined as “level 2,”; a case where all spores were ungerminated and the peptide completely inhibited the germination is defined as “level 3.”; details: 25° C. for 1 day or 2 days, microscopic observation

KTKVK (listed as Solanum lycopersicum) [TsORF6-1-5aa-8, partial peptide of TsORF6-1, 5 amino acid residues]
0: Plate antimicrobial activity test Botrytis cinerea, level (Botrytis cinerea; peptide 1 μM) | Plate antimicrobial activity test Botrytis cinerea, level (Botrytis cinerea; peptide 10 μM) | Plate antimicrobial activity test Botrytis cinerea, level (Botrytis cinerea; peptide 100 μM) | Plate antimicrobial activity test Colletotrichum destructivum, level ([1]; peptide 1 μM) | Plate antimicrobial activity test Colletotrichum destructivum, level ([1]; peptide 10 μM) | Plate antimicrobial activity test Colletotrichum destructivum, level ([1]; peptide 100 μM) | Plate antimicrobial activity test Colletotrichum orbiculare, level ([2]; peptide 1 μM) | Plate antimicrobial activity test Colletotrichum orbiculare, level ([2]; peptide 10 μM) | Plate antimicrobial activity test Colletotrichum orbiculare, level ([2]; peptide 100 μM) | Plate antimicrobial activity test Fusarium oxysporum, level (Fusarium oxysporum) | Plate antimicrobial activity test Pyricularia oryzae, level (Pyricularia oryzae; peptide 1 μM) | Plate antimicrobial activity test Pyricularia oryzae, level (Pyricularia oryzae; peptide 10 μM) | Plate antimicrobial activity test Pyricularia oryzae, level (Pyricularia oryzae; peptide 100 μM)

EELMVVAEEEAYRRVRGGMGW (listed as Solanum lycopersicum) [TsORF6-3, chemically synthesized region of TsORF6]
0: Plate antimicrobial activity test Botrytis cinerea, level (Botrytis cinerea; peptide 1 μM) | Plate antimicrobial activity test Botrytis cinerea, level (Botrytis cinerea; peptide 10 μM) | Plate antimicrobial activity test Botrytis cinerea, level (Botrytis cinerea; peptide 100 μM) | Plate antimicrobial activity test Colletotrichum destructivum, level ([1]; peptide 1 μM) | Plate antimicrobial activity test Colletotrichum destructivum, level ([1]; peptide 10 μM) | Plate antimicrobial activity test Colletotrichum destructivum, level ([1]; peptide 100 μM) | Plate antimicrobial activity test Colletotrichum orbiculare, level ([2]; peptide 1 μM) | Plate antimicrobial activity test Colletotrichum orbiculare, level ([2]; peptide 10 μM) | Plate antimicrobial activity test Colletotrichum orbiculare, level ([2]; peptide 100 μM) | Plate antimicrobial activity test Fusarium oxysporum, level (Fusarium oxysporum) | Plate antimicrobial activity test Pyricularia oryzae, level (Pyricularia oryzae; peptide 1 μM) | Plate antimicrobial activity test Pyricularia oryzae, level (Pyricularia oryzae; peptide 10 μM) | Plate antimicrobial activity test Pyricularia oryzae, level (Pyricularia oryzae; peptide 100 μM)

VKNKKVAK (listed as Solanum lycopersicum) [TsORF6-1-8aa-11, partial peptide of TsORF6-1, 8 amino acid residues]
0: Plate antimicrobial activity test Botrytis cinerea, level (Botrytis cinerea; peptide 1 μM) | Plate antimicrobial activity test Botrytis cinerea, level (Botrytis cinerea; peptide 10 μM) | Plate antimicrobial activity test Botrytis cinerea, level (Botrytis cinerea; peptide 100 μM) | Plate antimicrobial activity test Colletotrichum destructivum, level ([1]; peptide 1 μM) | Plate antimicrobial activity test Colletotrichum destructivum, level ([1]; peptide 10 μM) | Plate antimicrobial activity test Colletotrichum destructivum, level ([1]; peptide 100 μM) | Plate antimicrobial activity test Colletotrichum orbiculare, level ([2]; peptide 1 μM) | Plate antimicrobial activity test Colletotrichum orbiculare, level ([2]; peptide 10 μM) | Plate antimicrobial activity test Colletotrichum orbiculare, level ([2]; peptide 100 μM) | Plate antimicrobial activity test Fusarium oxysporum, level (Fusarium oxysporum) | Plate antimicrobial activity test Pyricularia oryzae, level (Pyricularia oryzae; peptide 1 μM) | Plate antimicrobial activity test Pyricularia oryzae, level (Pyricularia oryzae; peptide 10 μM) | Plate antimicrobial activity test Pyricularia oryzae, level (Pyricularia oryzae; peptide 100 μM)

VVKTK (listed as Solanum lycopersicum) [TsORF6-1-5aa-6, partial peptide of TsORF6-1, 5 amino acid residues]
0: Plate antimicrobial activity test Botrytis cinerea, level (Botrytis cinerea; peptide 1 μM) | Plate antimicrobial activity test Botrytis cinerea, level (Botrytis cinerea; peptide 10 μM) | Plate antimicrobial activity test Botrytis cinerea, level (Botrytis cinerea; peptide 100 μM) | Plate antimicrobial activity test Colletotrichum destructivum, level ([1]; peptide 1 μM) | Plate antimicrobial activity test Colletotrichum destructivum, level ([1]; peptide 10 μM) | Plate antimicrobial activity test Colletotrichum destructivum, level ([1]; peptide 100 μM) | Plate antimicrobial activity test Colletotrichum orbiculare, level ([2]; peptide 1 μM) | Plate antimicrobial activity test Colletotrichum orbiculare, level ([2]; peptide 10 μM) | Plate antimicrobial activity test Colletotrichum orbiculare, level ([2]; peptide 100 μM) | Plate antimicrobial activity test Fusarium oxysporum, level (Fusarium oxysporum) | Plate antimicrobial activity test Pyricularia oryzae, level (Pyricularia oryzae; peptide 1 μM) | Plate antimicrobial activity test Pyricularia oryzae, level (Pyricularia oryzae; peptide 10 μM) | Plate antimicrobial activity test Pyricularia oryzae, level (Pyricularia oryzae; peptide 100 μM)

TKVKNKKV (listed as Solanum lycopersicum) [TsORF6-1-8aa-9, partial peptide of TsORF6-1, 8 amino acid residues]
0: Plate antimicrobial activity test Botrytis cinerea, level (Botrytis cinerea; peptide 1 μM) | Plate antimicrobial activity test Botrytis cinerea, level (Botrytis cinerea; peptide 10 μM) | Plate antimicrobial activity test Botrytis cinerea, level (Botrytis cinerea; peptide 100 μM) | Plate antimicrobial activity test Colletotrichum destructivum, level ([1]; peptide 1 μM) | Plate antimicrobial activity test Colletotrichum destructivum, level ([1]; peptide 10 μM) | Plate antimicrobial activity test Colletotrichum destructivum, level ([1]; peptide 100 μM) | Plate antimicrobial activity test Colletotrichum orbiculare, level ([2]; peptide 1 μM) | Plate antimicrobial activity test Colletotrichum orbiculare, level ([2]; peptide 10 μM) | Plate antimicrobial activity test Colletotrichum orbiculare, level ([2]; peptide 100 μM) | Plate antimicrobial activity test Fusarium oxysporum, level (Fusarium oxysporum) | Plate antimicrobial activity test Pyricularia oryzae, level (Pyricularia oryzae; peptide 1 μM) | Plate antimicrobial activity test Pyricularia oryzae, level (Pyricularia oryzae; peptide 10 μM) | Plate antimicrobial activity test Pyricularia oryzae, level (Pyricularia oryzae; peptide 100 μM)

KVKNKKVA (listed as Solanum lycopersicum) [TsORF6-1-8aa-10, partial peptide of TsORF6-1, 8 amino acid residues]
0: Plate antimicrobial activity test Botrytis cinerea, level (Botrytis cinerea; peptide 1 μM) | Plate antimicrobial activity test Botrytis cinerea, level (Botrytis cinerea; peptide 10 μM) | Plate antimicrobial activity test Botrytis cinerea, level (Botrytis cinerea; peptide 100 μM) | Plate antimicrobial activity test Colletotrichum destructivum, level ([1]; peptide 1 μM) | Plate antimicrobial activity test Colletotrichum destructivum, level ([1]; peptide 10 μM) | Plate antimicrobial activity test Colletotrichum destructivum, level ([1]; peptide 100 μM) | Plate antimicrobial activity test Colletotrichum orbiculare, level ([2]; peptide 1 μM) | Plate antimicrobial activity test Colletotrichum orbiculare, level ([2]; peptide 10 μM) | Plate antimicrobial activity test Colletotrichum orbiculare, level ([2]; peptide 100 μM) | Plate antimicrobial activity test Fusarium oxysporum, level (Fusarium oxysporum) | Plate antimicrobial activity test Pyricularia oryzae, level (Pyricularia oryzae; peptide 1 μM) | Plate antimicrobial activity test Pyricularia oryzae, level (Pyricularia oryzae; peptide 10 μM) | Plate antimicrobial activity test Pyricularia oryzae, level (Pyricularia oryzae; peptide 100 μM)

VKTKVKNK (listed as Solanum lycopersicum) [TsORF6-1-8aa-7, partial peptide of TsORF6-1, 8 amino acid residues]
0: Plate antimicrobial activity test Botrytis cinerea, level (Botrytis cinerea; peptide 1 μM) | Plate antimicrobial activity test Botrytis cinerea, level (Botrytis cinerea; peptide 10 μM) | Plate antimicrobial activity test Botrytis cinerea, level (Botrytis cinerea; peptide 100 μM) | Plate antimicrobial activity test Colletotrichum destructivum, level ([1]; peptide 1 μM) | Plate antimicrobial activity test Colletotrichum destructivum, level ([1]; peptide 10 μM) | Plate antimicrobial activity test Colletotrichum destructivum, level ([1]; peptide 100 μM) | Plate antimicrobial activity test Colletotrichum orbiculare, level ([2]; peptide 1 μM) | Plate antimicrobial activity test Colletotrichum orbiculare, level ([2]; peptide 10 μM) | Plate antimicrobial activity test Colletotrichum orbiculare, level ([2]; peptide 100 μM) | Plate antimicrobial activity test Fusarium oxysporum, level (Fusarium oxysporum) | Plate antimicrobial activity test Pyricularia oryzae, level (Pyricularia oryzae; peptide 1 μM) | Plate antimicrobial activity test Pyricularia oryzae, level (Pyricularia oryzae; peptide 10 μM) | Plate antimicrobial activity test Pyricularia oryzae, level (Pyricularia oryzae; peptide 100 μM)

VKNKK (listed as Solanum lycopersicum) [TsORF6-1-5aa-11, partial peptide of TsORF6-1, 5 amino acid residues]
0: Plate antimicrobial activity test Botrytis cinerea, level (Botrytis cinerea; peptide 1 μM) | Plate antimicrobial activity test Botrytis cinerea, level (Botrytis cinerea; peptide 10 μM) | Plate antimicrobial activity test Botrytis cinerea, level (Botrytis cinerea; peptide 100 μM) | Plate antimicrobial activity test Colletotrichum destructivum, level ([1]; peptide 1 μM) | Plate antimicrobial activity test Colletotrichum destructivum, level ([1]; peptide 10 μM) | Plate antimicrobial activity test Colletotrichum destructivum, level ([1]; peptide 100 μM) | Plate antimicrobial activity test Colletotrichum orbiculare, level ([2]; peptide 1 μM) | Plate antimicrobial activity test Colletotrichum orbiculare, level ([2]; peptide 10 μM) | Plate antimicrobial activity test Colletotrichum orbiculare, level ([2]; peptide 100 μM) | Plate antimicrobial activity test Fusarium oxysporum, level (Fusarium oxysporum) | Plate antimicrobial activity test Pyricularia oryzae, level (Pyricularia oryzae; peptide 1 μM) | Plate antimicrobial activity test Pyricularia oryzae, level (Pyricularia oryzae; peptide 10 μM) | Plate antimicrobial activity test Pyricularia oryzae, level (Pyricularia oryzae; peptide 100 μM)

VVKTKVKN (listed as Solanum lycopersicum) [TsORF6-1-8aa-6, partial peptide of TsORF6-1, 8 amino acid residues]
0: Plate antimicrobial activity test Botrytis cinerea, level (Botrytis cinerea; peptide 1 μM) | Plate antimicrobial activity test Botrytis cinerea, level (Botrytis cinerea; peptide 10 μM) | Plate antimicrobial activity test Botrytis cinerea, level (Botrytis cinerea; peptide 100 μM) | Plate antimicrobial activity test Colletotrichum destructivum, level ([1]; peptide 1 μM) | Plate antimicrobial activity test Colletotrichum destructivum, level ([1]; peptide 10 μM) | Plate antimicrobial activity test Colletotrichum destructivum, level ([1]; peptide 100 μM) | Plate antimicrobial activity test Colletotrichum orbiculare, level ([2]; peptide 1 μM) | Plate antimicrobial activity test Colletotrichum orbiculare, level ([2]; peptide 10 μM) | Plate antimicrobial activity test Colletotrichum orbiculare, level ([2]; peptide 100 μM) | Plate antimicrobial activity test Fusarium oxysporum, level (Fusarium oxysporum) | Plate antimicrobial activity test Pyricularia oryzae, level (Pyricularia oryzae; peptide 1 μM) | Plate antimicrobial activity test Pyricularia oryzae, level (Pyricularia oryzae; peptide 10 μM) | Plate antimicrobial activity test Pyricularia oryzae, level (Pyricularia oryzae; peptide 100 μM)

NKKVAKMM (listed as Solanum lycopersicum) [TsORF6-1-8aa-13, partial peptide of TsORF6-1, 8 amino acid residues]
0: Plate antimicrobial activity test Botrytis cinerea, level (Botrytis cinerea; peptide 1 μM) | Plate antimicrobial activity test Botrytis cinerea, level (Botrytis cinerea; peptide 10 μM) | Plate antimicrobial activity test Botrytis cinerea, level (Botrytis cinerea; peptide 100 μM) | Plate antimicrobial activity test Colletotrichum destructivum, level ([1]; peptide 1 μM) | Plate antimicrobial activity test Colletotrichum destructivum, level ([1]; peptide 10 μM) | Plate antimicrobial activity test Colletotrichum destructivum, level ([1]; peptide 100 μM) | Plate antimicrobial activity test Colletotrichum orbiculare, level ([2]; peptide 1 μM) | Plate antimicrobial activity test Colletotrichum orbiculare, level ([2]; peptide 10 μM) | Plate antimicrobial activity test Colletotrichum orbiculare, level ([2]; peptide 100 μM) | Plate antimicrobial activity test Fusarium oxysporum, level (Fusarium oxysporum) | Plate antimicrobial activity test Pyricularia oryzae, level (Pyricularia oryzae; peptide 1 μM) | Plate antimicrobial activity test Pyricularia oryzae, level (Pyricularia oryzae; peptide 10 μM) | Plate antimicrobial activity test Pyricularia oryzae, level (Pyricularia oryzae; peptide 100 μM)
